Columns and labels:
Format in all cases: cell-based, human
PLR123 organoids [1] = assay: Regrowth of SN-38-treated PLR123 organoids on re-culture, CellTiter-Glo 3D Cell Viability Assay; conditions: BSO 200 μM and/or AUR 200 nM added upon re-culture of SN-38-treated organoids; n=4, FIG. 13
Experimental: Specifically, 7-ethyl-10-hydroxycamptothecin (SN-38, Cat #H0165, Merck) was added to the organoids (day 10) prepared in Example 1-1 at a concentration of 300 nM and culture was carried out for three days (SN-38 treatment). After culturing, organoids were recovered by decomposing Matrigel with Dispase I (Cat #386-02271, Fujifilm Wako Pure Chemical Corporation), washed with Cellotion (Cat #CB051, Nippon Zenyaku Kogyo Co., Ltd.), and the washed organoids were suspended in a new Matrigel and dispensed at 20 μL/well into a 96-well plate in which 20-30 μL/well of Matrigel was gelled beforehand. By centrifuging immediately after dispensing, the organoids were aligned on a single plane, making it easier to observe under a microscope. After gelling Matrigel at 37° C., 200 μL/well of an organoid culture medium (Example 1-1) was added and re-culture was carried out at 37° C. in a 5% CO2 environment.
In order to confirm the contribution of GPX1 and GPX2 towards the regrowth of organoids, the gamma-glutamylcysteine synthetase inhibitor L-buthionine-sulfoximine (BSO, Cat #B2515, Merck, 200 μM) and the thioredoxin reductase inhibitor auranofin (AUR, Cat #A6733, Merck, 200 nM) were added upon re-culture in the re-culture method of Example 2-1, and cell proliferation was measured by CellTiter-Glo 3D Cell Viability Assay (FIG. 12).

GPX1 [2] = assay: RNA-seq gene expression analysis of SN-38-treated organoids; conditions: organoids day 10 treated with 300 nM SN-38 for three days vs untreated organoids; n=3, FIG. 10
Experimental: (§1) The gene expression of the organoids prepared in Example 1-1 was analyzed by RNA-seq. First, total RNA was prepared from 2D-cultured cells and 3D-cultured organoids (day 10) cultured in Example 1-1 using TRIzol Reagent (Cat #15596018, Thermo Fisher Scientific). The quality of the purified total RNA was verified through RNA integrity number (RIN) measured using an Agilent 2100 Bioanalyzer (Agilent) to confirm that the RIN was greater than 9. Next, cDNAs were synthesized and amplified from 1 ng of total RNA using the SMART-Seq v4 Ultra Low Input RNA Kit for Sequencing (Takara Bio). Subsequently, a library was prepared using the Nextera XT DNA Library Prep kit (Illumina), and sequenced at 75 bp paired-end reads using the NextSeq500 system (Illumina). The obtained sequence information was mapped to NCBI RefSeq transcript sequence using RSEM software (v1.2.31), and the gene expression level was calculated by FPKM (Fragments Per Kilobase of exon model per Million mapped reads).
(§2) Gene expression analysis was performed on the organoids of Example 1-1 (day 10) and the SN-38-treated organoids of Example 2-1 using RNA-seq in the same manner as in Example 1-2 (n=3).

GPX2 [3] = assay: as above; conditions: organoids day 10 treated with 300 nM SN-38 for three days vs untreated organoids; n=3, FIG. 10
Experimental: as §1, §2

GPX1 [4] = assay: IHC protein expression analysis of organoids; conditions: immediately after 300 nM SN-38 treatment; expression continued on day 2 of regrowth; FIG. 11
Experimental: (§3) The protein expression of GPX1 (Uniprot ID: P07203, Refseq accession No. NP_000572) and GPX2 (Uniprot ID: P18283, Refseq accession No. NP_002074) was analyzed by IHC. Using an anti-GPX1 antibody (Cat #ab22604, Abcam, 0.5 ng/mL) and an anti-GPX2 antibody (Cat #ab137431, Abcam, 0.5 ng/mL) with the Envision system (Cat #K4003, Agilent) and peroxidase-diaminobenzidine reaction, the organoids of Example 1-1 (day 10), the SN-38-treated organoids of Example 2-1, and the regrowing organoids of Example 2-1 (day 2, day 6) were each stained. The results of IHC analysis confirmed that the expression of GPX1 and GPX2 increased immediately after the treatment with SN-38 and expression continued even on day 2 of regrowth (FIG. 11).

GPX2 [5] = assay: IHC protein expression analysis of organoids; conditions: immediately after 300 nM SN-38 treatment; expression continued on day 2 of regrowth; FIG. 11
Experimental: as §3

PLR123 organoids [6] = assay: Pathological (structural) analysis of organoids after SN-38 treatment; conditions: after 300 nM SN-38 for three days; new luminal structure formed from surviving cells during re-culture; FIG. 7
Experimental: In order to observe the structure of the organoids produced in Example 1-1 in detail, a pathological analysis was performed according to a previous report (J. Toxicol. Pathol. 31, 81-85 (2018)). Specifically, after removing the culture supernatant from each of the three-dimensional cultures (day 7, day 10, day 12, and day 13), 4% paraformaldehyde/phosphate buffer (Cat #09154-14, Nacalai Tesque) was added, and fixation was carried out at room temperature for 30 minutes. Matrigel was decomposed by pipetting, and organoids were collected in a centrifuge tube and washed. Subsequently, the organoids were suspended in a warmed 2% aqueous agarose solution (agarose, Type IX, Cat #A5030, Merck), centrifuged, and then cooled on ice to gel the agarose. This was treated by the AMeX method and embedded in paraffin. Paraffin blocks were sliced and stained with hematoxylin and eosin (HE) or Alcian blue-Periodic acid-Schiff (AB-PAS) by standard methods. Further, anti-LGR5 antibody (clone 2U2E-2 (Stem Cells, 30, 2631-2644 (2012))) and anti-Ki-67 antibody (clone MIB-1, Cat #M7240, Agilent) were used for immunofluorescent staining of the paraffin block sections. […]
The structure of the regrowing organoids was analyzed by pathological analysis in the same manner as in Example 1-3. […]

LGR5 = assay: FACS measurement of LGR5 expression in organoids; conditions: organoids immediately after SN-38 treatment; FIG. 8
Experimental: […] […] […] The resulting cells were reacted with 2 μg/mL anti-LGR5 antibody (clone 2L36 (Stem Cells, 30, 2631-2644 (2012))) or control mouse IgG2a antibody (clone MG2a-53, Cat #401502, BioLegend) at 4° C. for 1 hour, and then reacted with a PE-labeled secondary antibody (Cat #P-21139, Thermo Fisher Scientific) for 30 minutes at 4° C. Then dead cells were stained with 7-AAD Viability Dye (Cat #A07704, Beckman Coulter) and measured with a flow cytometer (BD FACSAria III, BD Biosciences). PBS containing 2% fetal bovine serum and 0.1% NaN3 was used as the buffer. Data were analyzed using BD FACSDiva (version 8.0.1, BD Biosciences) and FlowJo (version 7.6.5, BD Biosciences).

SMILES | organoid regrowth (cell proliferation) (PLR123 organoids [1]) | expression of GPX1 (RNA-seq) (GPX1 [2]) | expression of GPX2 (RNA-seq) (GPX2 [3]) | protein expression of GPX1 (IHC) (GPX1 [4]) | protein expression of GPX2 (IHC) (GPX2 [5]) | organoid structure (PLR123 organoids [6]) | LGR5 expression (FACS) (LGR5)
CCCCS(=N)(=O)CCC(N)C(=O)O [BSO, L-buthionine-sulfoximine] | suppressed only when both inhibitors were used in combination |  |  |  |  |  | 
CC(=O)OC[C@H]1O[C@@H]([S-])[C@H](OC(C)=O)[C@@H](OC(C)=O)[C@@H]1OC(C)=O.CCP(CC)CC.[Au+] [AUR, auranofin] | suppressed only when both inhibitors were used in combination |  |  |  |  |  | 
CCc1c2c(nc3ccc(O)cc13)-c1cc3c(c(=O)n1C2)COC(=O)[C@]3(O)CC [SN-38, 7-ethyl-10-hydroxycamptothecin] |  | increased by two-fold or more | increased by two-fold or more | increased | increased | once disrupted | almost no LGR5 expression was observed
